Reference: patent US7033784B1, “Method of producing an erythroid cell which is undifferentiated yet capable of expressing a heterologous protein” (Syngenta Limited, priority 1999, dated 2006)
Blank lines part the entries; values can stand above or below the compound they belong to.

Legend:
[1] = target: T1, Locusta migratoria tyramine receptor (TyrLoc) (Locusta migratoria, UniProt Q25321); assay: cAMP measurements (Scintillation Proximity Assay) in MEL-TyrLoc cells; assay type: cell-based; details: for antagonism of the effect of TA on cAMP: 10 μM Fsk + 0.1 μM TA, yohimbine 100 nM to 1 nM, mianserin 10 nM, chlorpromazine 10 nM; for inhibition of forskolin-induced increase of cAMP: 10 μM Fsk + 1 nM to 10 μM TA, FIG. 6
T1 construct: The coding region of the TyrLoc cDNA was amplified by polymerase chain reaction (PCR) from pVJ12 and pVJ12-IEG; expressed in transfected cells
T1 sequence (Q25321 12-484): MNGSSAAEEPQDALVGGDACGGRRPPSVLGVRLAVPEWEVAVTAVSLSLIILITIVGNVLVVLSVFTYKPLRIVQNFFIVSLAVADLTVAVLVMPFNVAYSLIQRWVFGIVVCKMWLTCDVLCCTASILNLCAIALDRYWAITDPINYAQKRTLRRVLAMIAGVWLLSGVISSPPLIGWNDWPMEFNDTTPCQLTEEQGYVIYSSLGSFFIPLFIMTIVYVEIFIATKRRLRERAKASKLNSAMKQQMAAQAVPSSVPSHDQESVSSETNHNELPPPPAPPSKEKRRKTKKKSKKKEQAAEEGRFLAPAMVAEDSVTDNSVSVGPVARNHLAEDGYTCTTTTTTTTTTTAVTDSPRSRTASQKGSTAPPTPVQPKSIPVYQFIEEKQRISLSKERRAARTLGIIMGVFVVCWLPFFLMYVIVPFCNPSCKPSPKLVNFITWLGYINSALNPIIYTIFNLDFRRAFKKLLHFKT
Description: (§1) The effect of TA on the cAMP level of the transformed and untransformed cells was investigated. MEL-C88L and MEL-TyrLoc cells were seeded in 6-well plates to a density of 8.10^5 cells/well and allowed to attach. The cell medium was removed and, in different wells, replaced with different NCF buffer solutions as follows: • (i) NCF+1 μM tyramine (TA), • (ii) NCF+10 μM forskolin (Fsk), • (iii) NCF+10 μM Fsk+1 nM to 10 μM TA. where NCF comprised 135 mM NaCl, 5 mM KCl, 6 mM glucose, 0.62 mM MgCl2, 10 mM Hepes pH 7.4 4 mM CaCl2.
For the use of other ligands than TA, the solutions were: • (iv) NCF+10 μM Fsk+1 μM OA, • (v) NCF+10 μM Fsk+0.1 μM TA+100 nM to 1 nM yohimbine, • (vi) NCF+10 μM Fsk+0.1 μM TA+10 nM mianserin; and • (vii) NCF+10 μM Fsk+0.1 μM TA+10 nM chlorpromazine.
(§2) All solutions contained 200 μM […] (IBMX) in order to inhibit cAMP phosphodiesterase. In each study, triplicate wells were incubated with the same solution at 37° C. for exactly 30 min.
(§3) In order to extract the cAMP, 100% ice-cold ethanol was added to each well to a final concentration of 65%. After 5 min incubation at room temperature, the solution was removed from the wells which were then rinsed with 65% ethanol. The eluates from the same well were then pooled together and evaporated using a speedvac. cAMP was then measured using the Scintillation Proximity Assay (Amersham), according to the manufacturers recommended procedure. This experiment was done in triplicate.

[2] = target: T1, Locusta migratoria tyramine receptor (TyrLoc); assay: Ca2+ measurements (fura-2) in uninduced MEL-TyrLoc cells; assay type: cell-based; details: for antagonism of the Ca2+ increase induced by TA: qualitative, data not shown for part
Description: (§4) Elevations in intracellular Ca^2+ in response to stimulation with ligands of the tyramine receptor were measured as follows. Since MEL cells loose the ability to signal on differentiation, and as receptor expression was readily detectable without induction of the MEL cells, uninduced MEL C88L cells of the invention were used.
(§5) Ca^2+ concentration was measured by using the acetoxymethyl (AM) ester of the fluorescent indicator fura-2 (Grynkiewicz G et al. (1985) J. Biol. Chem. 260 3440–3450). Cells were washed with NCF buffer (135 mM NaCl, 5 mM KCl, 6 mM glucose, 0.62 mM MgCl2.6H2O, 10 mM HEPES, pH 7.4 with 4 mM CaCl2) and resuspended at a concentration of 2.10^6 cells/ml in NCF buffer containing 2 μM fura-2-AM (Molecular Probes). After 1 hour incubation in the dark at 27° C., the cell suspension was subjected to centrifugation at 1200 rpm for 5 minutes, resuspended in an equal volume of NCF buffer and incubated for an additional 30 min in the dark. Aliquots were centrifuged as above and resuspended in 3 ml NCF buffer. Measurements of intracellular calcium were made fluorimetrically in a LS-50B Luminescence Spectrophotometer (Perkin-Elmer) in the presence and absence of the appropriate test chemical. Excitation wavelength alternated between 340 and 380 nm. The fluorescence intensity was monitored at an emission wavelength of 510 nm.

[3] = test system: Untransformed MEL-C88L cells; assay: cAMP measurements (Scintillation Proximity Assay) in untransformed MEL-C88L cells; assay type: cell-based, Murine; details: 200 μM IBMX, FIG. 5
Description: as §1, §2, §3

[4] = test system: Untransformed MEL-C88L cells; assay: Ca2+ measurements (fura-2) in untransformed MEL-C88L control cells; assay type: cell-based, Murine; details: concentrations as high as 100 μM TA
Description: as §4, §5

[5] = target: Dopamine Receptor (D-Dop1) (Drosophila melanogaster, UniProt P41596); details: 10 μM dopamine, Clones C and 2, 1×10^6 cells/well, FIG. 7
[6] = test system: serotonin receptor; assay: β-galactosidase (CRE reporter) assay using serotonin clones of MEL C88L cells
[7] = yohimbine 0.1, 1 and 2.5 μM, FIG. 4

Dopamine Receptor (D-Dop1), sequence (P41596 20-511): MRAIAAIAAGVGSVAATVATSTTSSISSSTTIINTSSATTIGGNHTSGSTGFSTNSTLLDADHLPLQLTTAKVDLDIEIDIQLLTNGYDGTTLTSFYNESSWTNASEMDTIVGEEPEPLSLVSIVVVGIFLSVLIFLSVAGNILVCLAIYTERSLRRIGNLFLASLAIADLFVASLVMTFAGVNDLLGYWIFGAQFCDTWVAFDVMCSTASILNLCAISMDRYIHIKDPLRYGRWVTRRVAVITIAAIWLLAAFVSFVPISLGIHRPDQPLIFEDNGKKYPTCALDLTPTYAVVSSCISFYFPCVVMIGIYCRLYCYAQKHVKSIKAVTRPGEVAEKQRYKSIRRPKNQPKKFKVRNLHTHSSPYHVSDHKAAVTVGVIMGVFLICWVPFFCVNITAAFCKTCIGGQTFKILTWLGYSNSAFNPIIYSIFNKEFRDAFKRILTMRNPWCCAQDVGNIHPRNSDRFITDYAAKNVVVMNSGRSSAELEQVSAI

Structure (SMILES): CN(C)CCCN1c2ccccc2Sc2ccc(Cl)cc21 [Chlorpromazine]
antagonism of the effect of TA on cAMP [1]: antagonistic effects
antagonism of the Ca2+ increase induced by TA [2]: clearly inhibited

Structure (SMILES): C=C[C@@]1(C)CC(=O)[C@]2(O)[C@@]3(C)[C@@H](O)CCC(C)(C)[C@@H]3[C@H](O)[C@H](OC(C)=O)[C@@]2(C)O1 [Forskolin, forskolin]
increase of cAMP level ([3]; 10 μM forskolin with or without TA): more than 6 times

Structure (SMILES): NCC(O)c1ccc(O)cc1 (centres unmarked) [OA, octopamine]
Ca2+ increase compared with TA ([2]; OA 0.5 μM versus TA 10 nM (50 times higher concentration), FIG. 3): much lesser extent than TA

Structure (SMILES): NCCc1ccc(O)cc1 [TA, tyramine]
Ca2+ response in untransformed cells [4]: no response
effect on cAMP level in untransformed cells ([3]; 1 μM TA, 30 min): did not result in any effect
inhibition of forskolin-induced increase of cAMP ([1]; 200 μM IBMX): significantly inhibits
inhibition of forskolin-induced increase of cAMP ([1]; 200 μM IBMX, listed as tyramine): inhibition
TA concentration giving maximal response (cAMP inhibition) ([1]; 10 μM Fsk, 200 μM IBMX): 1 µM
TA concentration giving minimal response (cAMP inhibition) ([1]; 10 μM Fsk, 200 μM IBMX): 1 nM
decrease in cAMP production with 1 μM TA when compared to 1 μM OA ([1]; 10 μM Fsk, 200 μM IBMX): 4 fold
TA concentration giving maximal Ca2+ response ([2]; MEL-TyrLoc clone, FIG. 2): 1 µM
Ca2+ increase after addition of TA ([2]; MEL-TyrLoc clone, dose-response 0.01 μM upwards, FIG. 2): clear transient increase in Ca^2+
activating concentrations lower than OA ([2]; TA versus OA as agonist of TyrLoc in MEL-TyrLoc cells (summary of Ca2+ and cAMP results)): 3–4 orders of magnitude

Structure (SMILES): COC(=O)[C@@H]1[C@H]2C[C@H]3c4[nH]c5ccccc5c4CCN3C[C@@H]2CC[C@@H]1O [Yohimbine]
antagonism of the effect of TA on cAMP [1]: inhibited the effect of TA in a dose dependent manner
antagonism of the Ca2+ increase induced by TA [2]: strongest antagonist
antagonism of the Ca2+ increase induced by TA ([2]; listed as yohimbine): better receptor antagonist than chlorpromazine and mianserin
inhibition of the Ca2+ response to 0.5 μM TA [2, 7]: concentration-dependent inhibition
inhibition of the Ca2+ response to 5 μM TA [2, 7]: could not inhibit
inhibition of the Ca2+ response to 0.5 μM TA ([2]; yohimbine 0.1, 1 and 2.5 μM, FIG. 4, listed as yohimbin): inhibition

absorbance at 570 nm (β-galactosidase, indicating cyclic AMP) with dopamine [5]: increase in absorbance at 570 nm
Structure (SMILES): NCCc1ccc(O)c(O)c1 [dopamine]

Structure (SMILES): C[C@H](CCC(=O)O)C[C@H](C)C[C@H](C)C(=O)/C=C(\O)[C@H](C)C[C@H](C)C/C=C/[C@@H](C)[C@@H](O)[C@@H](C)[C@@H](O)C[C@@H]1CC[C@@](C)([C@H]2CC[C@@](C)([C@@H](C)O)O2)O1 [ionomycin]
intracellular Ca2+ concentration after ionophore ([2]; 2 μM ionomycin, check of fura-2 loading): large increase

Structure (SMILES): CCN(CC)CCNC(=O)c1cc(Cl)c(N)cc1OC [metaclopramide]
effect on basal Ca2+ concentrations or on the response of the cells to TA ([2]; at concentrations below 20 μM): no detectable effect

Structure (SMILES): CN1CCN2c3ccccc3Cc3ccccc3C2C1 (centres unmarked) [mianserin]
antagonism of the effect of TA on cAMP [1]: antagonistic effects
antagonism of the Ca2+ increase induced by TA [2]: clearly inhibited

Structure (SMILES): c1ccc2c(CC3=NCCN3)cccc2c1 [naphazoline]
antagonism of the Ca2+ increase induced by TA [2]: weak antagonists

Structure (SMILES): NCCc1c[nH]c2ccc(O)cc12 [serotonin]
forskolin stimulated cAMP in the presence of serotonin ([6]; forskolin and serotonin): decrease in forskolin stimulated cAMP
cyclic AMP signal with serotonin alone ([6]; serotonin alone): no effect

Structure (SMILES): c1ccc(CC2=NCCN2)cc1 [tolazoline]
antagonism of the Ca2+ increase induced by TA [2]: weak antagonists
